# Test results from patent US9476099B2 (TRUSTEES OF DARTMOUTH COLLEGE, priority 2012, dated 2016).
# Test system: gene promoters in NT2/D1-R1 control and DNMT3B knockdown cells
# Assay: Genome-wide promoter methylation analysis, HumanMethylation27 BeadChip (Table 15)
# Format: cell-based, human
# Conditions: sh-ctrl + 5aza
# Method: DNA methylation analysis was performed in samples in triplicate using the […] […] assay with the HumanMethylation27 BeadChip ([…]) and the BeadChip was scanned on the BeadArray Reader ([…]), according to the manufacturer's instructions. Raw data was normalized and analyzed with Genome Studio software ([…]). The HumanMethylation27 BeadChip assays 27,578 CpGs covering more than 14,000 genes, mostly from promoter regions. […] Hierarchical clustering was performed as stated above. HumanMethylation27 BeadChip data and gene expression microarray data were submitted to NCBI GEO.
smiles,measurement,value
Nc1ncn([C@H]2C[C@H](O)[C@@H](CO)O2)c(=O)n1 [5aza],ABCC1 cg20158248 promoter methylation Mean,0.480
same,ACP1 cg27226618 promoter methylation Mean,0.786
same,ADCY4 cg16761581 promoter methylation Mean,0.609
same,ADRA2A cg26926521 promoter methylation Mean,0.939
same,ALDH1A3 cg19224278 promoter methylation Mean,0.443
same,ALKBH4 cg07404418 promoter methylation Mean,0.458
same,ALX4 cg04549333 promoter methylation Mean,1.136
same,ALX4 cg04970352 promoter methylation Mean,0.964
same,ALX4 cg19358442 promoter methylation Mean,1.126
same,ANKRD13C cg19342782 promoter methylation Mean,0.544
same,ANKRD45 cg15883716 promoter methylation Mean,1.017
same,APC cg16970232 promoter methylation Mean,0.424
same,BLOC1S2 cg26610808 promoter methylation Mean,0.575
same,BTBD5 cg00660989 promoter methylation Mean,0.347
same,BTNL8 cg24024214 promoter methylation Mean,1.068
same,C1QL1 cg13818573 promoter methylation Mean,0.460
same,C1orf188 cg15731815 promoter methylation Mean,0.541
same,C10orf107 cg16063112 promoter methylation Mean,0.354
same,C14orf173 cg24404909 promoter methylation Mean,0.379
same,C16orf60 cg17858663 promoter methylation Mean,0.245
same,C19orf4 cg07379574 promoter methylation Mean,1.078
same,C19orf22 cg18022193 promoter methylation Mean,0.288
same,CAMK1G cg27337148 promoter methylation Mean,1.021
same,CD58 cg21039631 promoter methylation Mean,0.251
same,CDKN2B cg04675937 promoter methylation Mean,0.256
same,CDKN2B cg08390209 promoter methylation Mean,0.280
same,CDX1 cg15452204 promoter methylation Mean,0.595
same,CEACAM4 cg10237469 promoter methylation Mean,0.718
same,CEACAM7 cg19623751 promoter methylation Mean,0.886
same,CGI-38 cg13067215 promoter methylation Mean,0.513
same,CHD5 cg00282347 promoter methylation Mean,1.005
same,CHMP2A cg14042128 promoter methylation Mean,0.541
same,COL11A1 cg12884406 promoter methylation Mean,0.415
same,COPS7B cg05422352 promoter methylation Mean,0.579
same,CRSP7 cg24459023 promoter methylation Mean,0.301
same,CSPG3 cg06952310 promoter methylation Mean,0.480
same,CSTF2T cg06712026 promoter methylation Mean,0.431
same,CTAGE1 cg02847216 promoter methylation Mean,0.955
same,CUL3 cg09509863 promoter methylation Mean,0.411
same,CYP4F12 cg25813714 promoter methylation Mean,0.959
same,DCTD cg14892066 promoter methylation Mean,0.243
same,DDEF2 cg22190705 promoter methylation Mean,0.329
same,DEFB118 cg03014957 promoter methylation Mean,0.690
same,DNASE2 cg07955356 promoter methylation Mean,0.275
same,DPH1 cg11516377 promoter methylation Mean,0.465
same,DYRK1B cg18851831 promoter methylation Mean,1.262
same,EIF2B3 cg16604218 promoter methylation Mean,0.543
same,ELSPBP1 cg19404979 promoter methylation Mean,0.655
same,ENOSF1 cg16112050 promoter methylation Mean,1.028
same,EPN3 cg24006361 promoter methylation Mean,1.019
same,EREG cg19308222 promoter methylation Mean,0.356
same,FAM111B cg13864937 promoter methylation Mean,0.508
same,FLJ10726 cg14145762 promoter methylation Mean,0.436
same,FLJ11200 cg09001953 promoter methylation Mean,0.482
same,FLJ23514 cg16404106 promoter methylation Mean,0.628
same,FLRT3 cg23127998 promoter methylation Mean,0.397
same,FLT3LG cg01667384 promoter methylation Mean,0.249
same,FXYD7 cg22392666 promoter methylation Mean,1.028
same,G10 cg02798801 promoter methylation Mean,0.608
same,GABRB2 cg16509658 promoter methylation Mean,0.219
same,GALNT4 cg16606638 promoter methylation Mean,0.265
same,GAS8 cg03634997 promoter methylation Mean,1.082
same,GBX2 cg23095584 promoter methylation Mean,0.468
same,GNAS cg27661264 promoter methylation Mean,0.565
same,GRB10 cg26163537 promoter methylation Mean,0.312
same,GUP1 cg24938727 promoter methylation Mean,0.640
same,HACE1 cg23047681 promoter methylation Mean,0.204
same,HGF cg06745740 promoter methylation Mean,0.594
same,HNRNPG-T cg22062068 promoter methylation Mean,0.977
same,HOXB4 cg25145670 promoter methylation Mean,0.488
same,HRASLS cg08376864 promoter methylation Mean,0.853
same,HYPK cg00480356 promoter methylation Mean,0.818
same,ICAM1 cg08607082 promoter methylation Mean,0.244
same,IFI16 cg07463059 promoter methylation Mean,0.582
same,IFI44 cg07107453 promoter methylation Mean,0.513
same,IFNA2 cg13235447 promoter methylation Mean,0.697
same,IGF2AS cg20792294 promoter methylation Mean,0.323
same,IGFBP5 cg19008649 promoter methylation Mean,0.370
same,IGSF9 cg19111262 promoter methylation Mean,0.826
same,IHH cg17178336 promoter methylation Mean,0.709
same,IL2RG cg01361446 promoter methylation Mean,1.103
same,IL18 cg11304234 promoter methylation Mean,0.646
same,INPP5B cg10784030 promoter methylation Mean,0.366
same,ITGB3BP cg18464559 promoter methylation Mean,0.168
same,KA21 cg23776012 promoter methylation Mean,0.641
same,KCNA3 cg03483626 promoter methylation Mean,0.326
same,KCNAB3 cg14918082 promoter methylation Mean,0.852
same,KCNB2 cg11754206 promoter methylation Mean,0.551
same,KCNK10 cg17671157 promoter methylation Mean,1.059
same,KLK7 cg19953406 promoter methylation Mean,0.983
same,LAMB1 cg10064162 promoter methylation Mean,0.426
same,LDHD cg24429836 promoter methylation Mean,0.760
same,LIG4 cg08216792 promoter methylation Mean,0.356
same,LYNX1 cg24046110 promoter methylation Mean,0.430
same,MC3R cg19226099 promoter methylation Mean,1.057
same,MGC26856 cg07684809 promoter methylation Mean,0.489
same,MLNR cg02620013 promoter methylation Mean,0.755
same,MPHOSPH6 cg16119274 promoter methylation Mean,0.444
same,MSX1 cg03199651 promoter methylation Mean,0.288
same,MYOD1 cg24322623 promoter methylation Mean,0.931
same,NCKIPSD cg04244987 promoter methylation Mean,0.392
same,NDP cg11614809 promoter methylation Mean,0.756
same,NEFH cg16042149 promoter methylation Mean,1.041
same,NEIL2 cg14329976 promoter methylation Mean,0.360
same,NME5 cg13707560 promoter methylation Mean,1.225
same,NME5 cg25507001 promoter methylation Mean,0.889
same,NOC3L cg07270175 promoter methylation Mean,0.614
same,NOX4 cg17063929 promoter methylation Mean,0.483
same,NPAS1 cg09628601 promoter methylation Mean,0.553
same,NRXN1 cg10917619 promoter methylation Mean,0.867
same,OR1N1 cg14598387 promoter methylation Mean,0.606
same,OR10J1 cg15700197 promoter methylation Mean,0.679
same,PACS1 cg01663295 promoter methylation Mean,0.625
same,PCDHB13 cg14592099 promoter methylation Mean,0.747
same,PCDHB13 cg24435562 promoter methylation Mean,0.441
same,PCDHGA12 cg11647681 promoter methylation Mean,0.936
same,PCGF5 cg17001035 promoter methylation Mean,0.893
same,PEPD cg06546607 promoter methylation Mean,0.266
same,PEX5L cg02430692 promoter methylation Mean,0.511
same,PI3 cg02442161 promoter methylation Mean,0.857
same,PIGL cg05310071 promoter methylation Mean,0.351
same,POU3F3 cg20291049 promoter methylation Mean,0.387
same,POU4F2 cg24199834 promoter methylation Mean,0.287
same,PTCH2 cg15329642 promoter methylation Mean,0.789
same,PTPN5 cg17233601 promoter methylation Mean,0.801
same,RASGEF1A cg07871503 promoter methylation Mean,0.945
same,RBPSUHL cg21835643 promoter methylation Mean,1.018
same,REM1 cg12153542 promoter methylation Mean,0.664
same,REM1 cg26299767 promoter methylation Mean,0.727
same,RLN3R1 cg12238343 promoter methylation Mean,0.732
same,RPL39L cg07441272 promoter methylation Mean,0.691
same,RRM2B cg07125123 promoter methylation Mean,0.370
same,RYR1 cg05471297 promoter methylation Mean,0.480
same,S100A12 cg02813121 promoter methylation Mean,0.941
same,SCUBE2 cg01081263 promoter methylation Mean,0.693
same,SCUBE2 cg19237879 promoter methylation Mean,0.670
same,SEMA3E cg08274234 promoter methylation Mean,0.306
same,SEMA6C cg01958916 promoter methylation Mean,0.267
same,SEPN1 cg21187265 promoter methylation Mean,0.387
